Data: US8946287B2, “Chemotherapeutic flavonoids, and syntheses thereof” (Purdue Research Foundation, priority 2006, dated 2015)
Where two headings read alike, the source gives them in different places.

Columns and labels:
[1] = biological target: T1, aromatase (CYP19, BD Biosciences) (Homo sapiens, UniProt P11511); experiment: Assay for inhibition of aromatase activity (fluorescence, dibenzylfluorescein)
T1 sequence (P11511 1-503): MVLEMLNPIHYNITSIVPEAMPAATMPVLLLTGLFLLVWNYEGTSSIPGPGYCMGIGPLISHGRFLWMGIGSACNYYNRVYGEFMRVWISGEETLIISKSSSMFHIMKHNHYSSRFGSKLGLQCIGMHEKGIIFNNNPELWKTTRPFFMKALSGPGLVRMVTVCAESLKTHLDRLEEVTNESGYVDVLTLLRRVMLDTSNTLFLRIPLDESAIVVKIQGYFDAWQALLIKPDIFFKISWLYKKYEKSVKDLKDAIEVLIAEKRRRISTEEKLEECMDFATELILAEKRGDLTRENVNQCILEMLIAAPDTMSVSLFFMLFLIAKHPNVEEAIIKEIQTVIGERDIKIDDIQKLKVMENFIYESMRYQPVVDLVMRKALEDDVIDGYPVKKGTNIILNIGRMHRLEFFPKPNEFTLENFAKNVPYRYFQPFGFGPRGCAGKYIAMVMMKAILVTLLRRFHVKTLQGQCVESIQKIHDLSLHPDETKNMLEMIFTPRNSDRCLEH
Description: Aromatase inhibition is quantified by measuring the fluorescent intensity of fluorescein, the hydrolysis product of dibenzylfluorescein by aromatase. In brief, the test substance (10 μL) is pre-incubated with the NADPH regenerating system (90 μL of 2.6 mM NADP^+, 7.6 mM glucose 6-phosphate, 0.8 U/mL glucose-6-phosphate dehydrogenase, 13.9 mM MgCl2, and 1 mg/mL albumin in 10 mL of 50 mM potassium phosphate, pH 7.4) for 10 min at 37° C. before 100 μL of the enzyme and substrate mixture [800 μL enzyme (CYP19, BD Biosciences, San Jose, Calif.), 0.4 μM dibenzylfluorescein and 4 mg/mL albumin in 10 mL of 50 mM potassium phosphate, pH 7.4] are added. Then, the reaction mixture is incubated for 30 min at 37° C. to allow aromatase to generate the product, and quenched with 75 μL 2 N NaOH. After the reaction is terminated, a 5-min shaking followed by a 2-h incubation at 37° C. enhances the noise/background ratio and fluorescence is measured at 485 nm (excitation) and 530 nm (emission). All experiments were performed in duplicate and the average was used for calculation of IC50 values (Table 2). Compounds were tested in comparison to aminogluthethimide used as positive control.

[2] = system: TPA-induced ornithine decarboxylase (ODC) activity in T24 cells; experiment: Inhibition of TPA-induced ornithine decarboxylase (ODC) activity in T24 cells; format: cell-based; settings: Homo sapiens, read-out: IC50, inhibition of TPA-induced ODC activity
Description: Cell Culture. […] T24 cells were cultured in MEM medium (Invitrogen, Carlsbad, Calif.) containing 10% heat-inactivated fetal bovine serum, non-essential amino acids, 1 mM sodium pyruvate (BioWhittaker, Walkersville, Md.), 100 units of penicillin/mL, 100 μg streptomycin/mL and 250 ng amphotericin B/mL (Gibco Invitrogen, Grand Island, N.Y.). […] The cell lines were maintained in a 5% CO2 atmosphere at 37° C. and were routinely tested for mycoplasma contamination.
In brief, cells were plated at an initial density of 2×10^5 cells per well in 24-well plates. […] After an additional 6 h incubation, plates were washed twice with PBS and kept at −85° C. until tested. ODC activity was directly assayed by measuring the release of [^14C]CO2 from L-[1-^14C]-ornithine HCl in the presence of 190 μM nonradioactive ornithine HCl. The amount of radioactivity captured in NaOH-impregnated filter discs was determined by scintillation counting in 24-well plates using a Wallac 1450 Microbeta liquid scintillation counter. Protein was determined according to the Lowry procedure. Interfering dithiothreitol contained in the reaction mixture was destroyed by adding chloramine T (50 μL, 8 mg/mL) to each well (30 min incubation at RT), followed by NaOH (50 μM, 5.7 M) to solubilize the protein. The protein was measured in 96-well plates using an aliquot of the reaction mixture and bovine serum albumin as a standard. The optical density was measured at 660 nm using a BT2000 Microkinetic Reader. The results were calculated as nmol [^14C]CO2/h/mg protein and expressed as a percentage in comparison with a control treated with DMSO and TPA (12-O-tetradecanoylphorbol-13-acetate). Dose-response curves were prepared and the results were expressed as IC50 values in micromolar concentrations.

HL-60 cells = experiment: Induction of differentiation in HL-60 cell line (NBT reduction, 4-day protocol); format: cell-based
Description: Cell Culture. […] The cell lines were maintained in a 5% CO2 atmosphere at 37° C. and were routinely tested for mycoplasma contamination.
HL-60 cells were tested using a 4-day protocol. […] In brief, cells in log phase (approximately 10^6 cells/mL) were diluted to 10^5 cells/mL and preincubated overnight (18 h) in 24-well plates to allow cell growth recovery. Then, samples dissolved in DMSO were added, keeping the final DMSO concentration at 0.1% (v/v). Control cultures were treated with the same concentration of DMSO.
Evaluation of NBT reduction was used to assess the ability of sample-treated cells to produce superoxide when challenged with TPA. A 1:1 (v/v) mixture of a cell suspension (10^6 cells) and TPA/NBT solution [2 mg/mL NBT and 1 μg/mL TPA in phosphate buffer saline (PBS)] was incubated for 1 h at 37° C. Then, cells were smeared on glass slides, and counterstained with 0.3% (w/v) safranin O in methanol. Positive cells reduce NBT yielding intracellular black-blue formazan deposits and were quantified by microscopic examination of >200 cells. Results were expressed as a percentage of positive cells.

[3] = system: TPA-induced NF-κB activity in HepG2 cells stably transfected with NF-κB-luciferase plasmid; experiment: Inhibition of TPA-induced NF-κB activity in HepG2 cells (NF-κB-luciferase); format: cell-based, human
Description: Cell Culture. […] HepG2 human hepatoma cells stably transfected with NF-κB-luciferase plasmid were maintained in Ham's F12 supplemented with 10% heat-inactivated fetal bovine serum, 100 units/mL penicillin G sodium, 100 μg/mL streptomycin sulfate, 1% MEM amino acid and 0.1% insulin. […] The cell lines were maintained in a 5% CO2 atmosphere at 37° C. and were routinely tested for mycoplasma contamination.
Inhibition of TPA-Induced NF-κB Activity in HepG2 Cells. […] In brief, transfected cells were incubated for 48 h in 96-well plates. […] Cells were washed with PBS, lysed using 50 μL 1× Reporter Lysis Buffer (Promega, Madison, Wis.) for 10 min, and the luciferase determination was performed according to the manufacturer's protocol.

[4] = T-24, T24 cells, TPA 200 nM, 6 h incubation
[5] = read-out: IC50 (μM), aromatase inhibition, fluorescein from dibenzylfluorescein, 30 min at 37° C., average of duplicates

## CC(C)=CCc1cc(/C=C/C(=O)c2ccc(O)cc2O)ccc1O [7b, 1-(2,4-Dihydroxyphenyl)-3-(4-hydroxy-3-(3-methylbut-2-enyl)phenyl)-prop-2-en-1-one]
other
  melting point: 167 °C
[1]
  IC50: > 308 µM

## O=c1cc(-c2ccc(O)cc2)oc2cc(O)cc(O)c12 [apigenin]
[2]; [4]
  IC50: 6 µM
HL-60 cells
  ED50, concentration inducing 50% of the cells to differentiate: 10 µM

## O=c1c(-c2ccc(O)cc2)coc2cc(O)cc(O)c12 [genistein]
HL-60 cells
  ED50, concentration inducing 50% of the cells to differentiate: 30 µM

## COc1ccc(C(=O)/C=C/c2ccc(O)c(CC=C(C)C)c2)c(O)c1 [7f, 3-(4-Hydroxy-3-(3-methylbut-2-enyl)phenyl)-1-(2-hydroxy-4-methoxyphenyl)prop-2-en-1-one]
other
  melting point: 80 to 82 °C
[1]
  IC50: > 295 µM

## COc1cc2c(cc1OC)[C@@H]1C(=O)c3ccc4c(c3O[C@@H]1CO2)C=CC(C)(C)O4 [deguelin]
[2]; T-24, 6 h
  IC50: 0.1 µM

## COc1ccc2c(c1)OC(c1ccc(O)c(CC=C(C)C)c1)CC2=O (racemic) [8f, 2-(4-Hydroxy-3-(3-methylbut-2-enyl)phenyl)-7-methoxychroman-4-one]
[1]
  IC50: 4.75 ± 0.61 µM

## COc1ccc(C(=O)CC(O)c2ccc(OC)c(CC=C(C)C)c2)c(O)c1 (stereo not shown) [3-Hydroxy-1-(2-hydroxy-4-methoxyphenyl)-3-(4-methoxy-3-(3-methylbut-2-enyl)phenyl)propan-1-one]
[1]; [5]
  IC50: 54.7 ± 11.9 µM

## COc1ccc(/C=C/C(=O)c2ccccc2O)cc1CC=C(C)C [7h, 1-(2-Hydroxyphenyl)-3-(4-methoxy-3-(3-methylbut-2-enyl)phenyl)prop-2-en-1-one]
[1]
  IC50: > 310 µM

## COc1ccc(C(=O)/C=C/c2ccc(OC)c(CC=C(C)C)c2)c(O)c1 [7g, 1-(2-Hydroxy-4-methoxyphenyl)-3-(4-methoxy-3-(3-methylbut-2-enyl)phenyl)prop-2-en-1-one]
other
  melting point: 82 to 84 °C
[1]
  IC50: > 284 µM

## COc1ccc(/C=C/C(=O)c2ccc(O)cc2O)cc1CC=C(C)C [7d, 1-(2,4-Dihydroxyphenyl)-3-(4-methoxy-3-(3-methylbut-2-enyl)phenyl)prop-2-en-1-one]
other
  melting point: 166 to 168 °C
[1]; [5]
  IC50: 82.9 ± 44.3 µM

## COc1ccc(/C=C/C(=O)c2ccc(OC)cc2O)cc1 [7j, 1-(2-Hydroxy-4-methoxyphenyl)-3-(4-methoxyphenyl)prop-2-en-1-one]
[1]
  IC50: > 352 µM

## COc1ccc2c(c1)OC(c1ccc(OC)c(CC=C(C)C)c1)CC2=O (racemic) [8g, 7-Methoxy-2-(4-methoxy-3-(3-methylbut-2-enyl)phenyl)chroman-4-one]
[1]
  IC50: 3.67 ± 1.61 µM

## COc1ccc2c(c1)OC(c1cccc(CC=C(C)C)c1)CC2=O (racemic) [8i, 7-Methoxy-2-(3-(3-methylbut-2-enyl)phenyl)chroman-4-one]
[1]
  IC50: 4.67 ± 2.15 µM

## COCOc1ccc2c(c1)OC(c1ccc(OCOC)c(CC=C(C)C)c1)CC2=O (racemic) [8a, 7-(Methoxymethoxy)-2-(4-(methoxymethoxy)-3-(3-methylbut-2-enyl)phenyl)-chroman-4-one]
[1]
  IC50: 13.9 ± 6.09 µM

## COc1ccc(C2CC(=O)c3ccc(OC)cc3O2)cc1 (racemic) [8j, 7-Methoxy-2-(4-methoxyphenyl)chroman-4-one]
[1]
  IC50: 1.86 ± 0.37 µM

## COCOc1ccc(C2CC(=O)c3ccc(OC)cc3O2)cc1CC=C(C)C (racemic) [8e, 7-Methoxy-2-(4-(methoxymethoxy)-3-(3-methylbut-2-enyl)phenyl)chroman-4-one]
[1]
  IC50: 25.1 ± 6.38 µM

## COc1ccc(C2CC(=O)c3ccccc3O2)cc1CC=C(C)C (racemic) [8h, 2-(4-Methoxy-3-(3-methylbut-2-enyl)phenyl)chroman-4-one]
[1]
  IC50: 12.1 ± 3.24 µM

## COc1ccc2c(c1)OC(c1ccc(OCC=C(C)C)cc1)CC2=O (racemic) [8k, 7-Methoxy-2-(4-(3-methylbut-2-enyloxy)phenyl)chroman-4-one]
other
  melting point: 108 to 110 °C

## COc1ccc(C(=O)C=Cc2ccc(OCC=C(C)C)cc2)c(O)c1 [7k, 1-(2-Hydroxy-4-methoxyphenyl)-3-(4-(3-methylbut-2-enyloxy)phenyl)prop-2-en-1-one]
other
  melting point: 95 to 97 °C
[1]
  IC50: > 271 µM

## COCOc1ccc(/C=C/C(=O)c2ccc(OC)cc2O)cc1CC=C(C)C [7e, 1-(2-Hydroxy-4-methoxyphenyl)-3-(4-(methoxymethoxy)-3-(3-methylbut-2-enyl)phenyl)prop-2-en-1-one]
[1]
  IC50: > 261 µM

## CC1=CC(=O)c2ccccc2C1=O [menadione]
[2]; [4]
  IC50: 8.3 µM

## CC(C)=CCc1cc(C2CC(=O)c3ccc(O)cc3O2)ccc1O (racemic) [8b, 7-Hydroxy-2-(4-hydroxy-3-(3-methylbut-2-enyl)phenyl)chroman-4-one]
other
  melting point: 76 to 78 °C

## COc1ccc(C(=O)/C=C/c2cccc(CC=C(C)C)c2)c(O)c1 [7i, 1-(2-Hydroxy-4-methoxyphenyl)-3-(3-(3-methylbut-2-enyl)phenyl)prop-2-en-1-one]
[1]
  IC50: > 310 µM

## Tumor necrosis factor (TNF)-α
[3]
  IC50, standard inhibitor in NF-κB luciferase assay: 0.015 to 0.025 µg/mL

## COCOc1ccc2c(c1)OC(c1ccc(OC)c(CC=C(C)C)c1)CC2=O (racemic) [8c, 2-(4-Methoxy-3-(3-methylbut-2-enyl)phenyl)-7-(methoxymethoxy)chroman-4-one]
[1]
  IC50: 7.67 ± 3.27 µM

## COCOc1ccc(C(=O)/C=C/c2ccc(OCOC)c(CC=C(C)C)c2)c(O)c1 [7a, 1-(2-Hydroxy-4-(methoxymethoxy)phenyl)-3-(4-(methoxymethoxy)-3-(3-methylbut-2-enyl)phenyl)prop-2-en-1-one]
[1]
  IC50: > 243 µM

## COc1ccc(C2CC(=O)c3ccc(O)cc3O2)cc1CC=C(C)C (racemic) [8d, 7-Hydroxy-2-(4-methoxy-3-(3-methylbut-2-enyl)phenyl)chroman-4-one]
[1]
  IC50: 4.08 ± 2.1 µM

## COCOc1ccc(C(=O)/C=C/c2ccc(OC)c(CC=C(C)C)c2)c(O)c1 [7c, 1-(2-Hydroxy-4-(methoxymethoxy)phenyl)-3-(4-methoxy-3-(3-methylbut-2-enyl)phenyl)prop-2-en-1-one]
[1]
  IC50: > 261 µM
